According to US9121022B2, “Method for controlling herbicide-resistant plants” (priority 2010, dated 2015):
“Also recorded” adds a separate entry of the source. d = 2'-deoxy (DNA); r = 2'-OH (RNA)

What was measured:
[1] = test system: Nicotiana benthamiana phytoene desaturase; experiment: topical PDS oligonucleotides/polynucleotides on tobacco, bleaching and chlorophyll (Example 10); type: in vivo; settings: for Chlorophyll (day 7) / Chlorophyll (day 12): 6 spots on the apical area, lower values indicate suppression of phytoene desaturase; for systemic regulation (suppression) of the target phytoene desaturase gene: conclusion from Table 4; for Bleaching (day 5): day 5 after treatment
Text: The target gene used was a Nicotiana benthamiana phytoene desaturase (SEQ ID NO:2), shown in FIG. 10; the segment consisting of nucleotides 421-1120 of SEQ ID NO:2 (underlined text in FIG. 10) was used to design a 700-mer dsRNA polynucleotide (“PDS 700-mer”) and the segment consisting of nucleotides 914-1113 of SEQ ID NO:2 (bolded underlined text in FIG. 10) was used to design a 200-mer dsRNA polynucleotide (“PDS 200-mer”). FIG. 11 schematically depicts the location of the sequences of these oligonucleotides and polynucleotides in relation to the […] (SEQ ID NO:2) sequence. Non-plant sequences obtained from corn rootworm (“CRW”), SEQ ID NOs:27, 28, 29, and 30 were used as non-homologous controls. Some of the polynucleotides included a T7 promoter sequence (indicated by lower-case text in Table 3) that is a promoter recognized by a bacteriophage T7 RNA polymerase.
The following procedure was used for all assays described in this example. Four-week old Nicotiana benthamiana plants were used in all assays. Plants were treated with 0.1% SILWET L-77® brand surfactant solution freshly made with ddH2O. Two fully expanded leaves per plant (one cotyledon, one true leaf) were dipped into the SILWET L-77® brand surfactant solution for a few seconds, and allowed to dry for 15-30 minutes before application of the polynucleotide composition. Final concentration for each oligonucleotide or polynucleotide was 25 microM (in 0.01% SILWET L-77® brand surfactant, 5 mM sodium phosphate buffer, pH 6.8) unless otherwise stated. 20 microliters of the solution was applied to the top surface of each of the two pre-treated leaves to provide a total of 40 microliters (1 nmol oligonucleotide or polynucleotide) for each plant. Leaf bleaching was observed 3 days post treatment.
FIG. 13 illustrates phenotypes observed at day 12 after treatment in another assay of the effect from twelve combinations of polynucleotides or oligonucleotides (see Table 4). Table 4 also lists observations of visible bleaching of the plants at day 5 after treatment and the results of chlorophyll measurements taken at days 7 and 12 after treatment. Chlorophyll measurements are an indication of suppression of the target gene phytoene desaturase, and measurements were taken at 6 spots on the apical area, focussing on visibly bleached leaves or (in plants without visible bleaching) on leaves in equivalent locations on the plants; lower chlorophyll measurement values indicate suppression of phytoene desaturase.

[2] = test system: Palmer amaranth (EPSPS copy numbers 16 to 112); experiment: combinations of EPSPS, TIF and ddATPase polynucleotides with glyphosate, protocols of Table 12 (Example 26, Table 13); type: in vivo, Palmer amaranth (Amaranthus palmeri)
Method: The polynucleotides listed in Table 11 were produced by synthesis or by in vitro transcription.
Solutions of the polynucleotides were prepared and applied to the leaves of Palmer amaranth using the protocols described in Table 12.

[3] = test system: Palmer amaranth phytoene desaturase (PDS); experiment: sequence specificity of PDS dsRNA on Palmer amaranth, leaf bleaching (Example 11); type: in vivo; settings: for bleaching of leaves: 0.6 micromolar, 40 microliters per plant, 3 days post treatment; for bleaching of leaves (FIG. 17): separate assay
Text: Palmer amaranth phytoene desaturase (PDS) has the sequence […] […] […] […] […] […] […] […] […] […] […] […] […] […] […] […] […] […] […] […] […] […] […] […] (SEQ ID NO:37). A 678 base pair dsRNA polynucleotide with an anti-sense strand capable of hybridizing to the RNA encoded by the nucleotides at positions 317-994 (shown as underlined text) in SEQ ID NO:37 and a 198 base pair dsRNA polynucleotide with an anti-sense strand capable of hybridizing to the RNA encoded by the nucleotides at positions 797-994 (shown as italicized and underlined text) in SEQ ID NO:37 were synthesized.
Nicotiana benthamiana phytoene desaturase has the sequence […] […] […] […] […] […] […] […] […] […] […] […] […] […] […] […] […] […] […] […] […] […] […] […] […] […] (SEQ ID NO:38). A 685 base pair dsRNA polynucleotide with an anti-sense strand capable of hybridizing to the RNA encoded by the nucleotides at positions 421-1105 (shown as underlined text) in SEQ ID NO:38 and a 192 base pair dsRNA polynucleotide with an anti-sense strand capable of hybridizing to the RNA encoded by the nucleotides at positions 914-1105 (shown as italicized and underlined text) in SEQ ID NO:38 were synthesized.
Palmer amaranth plants having 16 copies of EPSPS and 5-8 inches high were treated with 0.1% SILWET L-77® brand surfactant solution freshly made with ddH2O. Four fully expanded leaves per plant were dipped into the SILWET L-77® brand surfactant solution for a few seconds, and allowed to dry for 30 minutes to 1 hour before application of the polynucleotide composition. Individual polynucleotide solutions were made for each of the 678 bp Palmer PDS dsRNA, 198 bp Palmer PDS dsRNA, the 685 bp Nicotiana benthamiana PDS dsRNA, and the 192 bp Nicotiana benthamiana PDS dsRNA (0.6 micromolar polynucleotide in 0.01% SILWET L-77® brand surfactant, 5 mM sodium phosphate buffer, pH 6.8). 10 microliters of polynucleotide solution (or buffer as a control) was applied to the top surface of each of the four pre-treated leaves per plant to provide a total of 40 microliters for each plant. Plants were kept in a growth chamber, and leaf bleaching was observed 3 days post treatment.

[4] = Protocol 3, 29 g/acre, copy number 16, 13 DAT

## Treatment 8: SEQ ID NO: 22, 23; anti-sense 22-mer oligos without T7 promoter (antisense 1 CATCTCCTTTAATTGTACTGCC; antisense 2 TTTAATTGTACTGCCATTATTC; listed as DNA, chemistry not given here)
[1]; another assay, listed as PDS anti-sense
  bleaching of apical leaves (FIG. 15): strong bleaching; also recorded: apical leaf bleaching observed

## IDT [2]: Palmer/EPSPS dsRNA, SEQ ID NO. 85, 86 (chain 1 AGUUGGUGGGCAAUCAUCAAUUGTT; chain 2 AACAAUUGAUGAUUGCCCACCAACUCU; chain 1: sugars from the 5' end r23 d2, backbone not given here; chain 2: RNA, backbone not given here)
[2]; [4]
  Results: control: 0% control

## 7 (sense 1 GCAAGAGATGTCCTAGGTGGG; sense 2 ACAGATTTCTTCAGGAGAAACATGG; DNA, backbone not given here) [compound 7]
[1]
  Chlorophyll (day 7): 32.0
  Chlorophyll (day 12): 41.1
  systemic regulation (suppression) of the target phytoene desaturase gene: did not suppress
  Bleaching (day 5): not yet

## 8 (antisense 1 CATCTCCTTTAATTGTACTGCC; antisense 2 TTTAATTGTACTGCCATTATTC; DNA, backbone not given here) [compound 8]
[1]
  Chlorophyll (day 7): 11.3
  Chlorophyll (day 12): 3.2
  systemic regulation (suppression) of the target phytoene desaturase gene: effective
  Bleaching (day 5): strong

## IDT [1]: Palmer/EPSPS dsRNA, SEQ ID NO. 83, 84; 25-mer sense with two 3′ deoxyribonucleotides, 27-mer anti-sense (sense CUACCAUCAACAAUGGUGUCCAUAC; antisense GUAUGGACACCAUUGUUGAUGGUAGUA; sense: sugars from the 5' end r23 d2, backbone not given here; antisense: RNA, backbone not given here)
[2]; [4]
  Results: stunted: 51% stunted

## IDT [5]: Palmer/EPSPS dsRNA (21-mer) with blunt ends, SEQ ID NO. 91, 92 (chain 1 AACAUGAACAAAAUGCCAGAU; chain 2 AUCUGGCAUUUUGUUCAUGUU; RNA, backbone not given here)
[2]; Protocol 1, 0.29 g/acre, copy number 33, 54, 55, 18 DAT
  Results: stunted: 71%
[2]; Protocol 1, 2.9 g/acre each, copy number 34, 36, 54, 22 DAT
  Results: killed: 100% kill
[2]; Protocol 1, 2.9 g/acre, copy number 33, 54, 55, 18 DAT
  Results: killed: 100% killed

## 6 (sense ATCCATGATATCGTGAACATC; antisense GCAAAGAAAAATGCGTCG; DNA, backbone not given here) [compound 6]
[1]
  Chlorophyll (day 7): 34.2
  Chlorophyll (day 12): 38.2
  systemic regulation (suppression) of the target phytoene desaturase gene: did not suppress
  Bleaching (day 5): not yet

## IDT [3]: Palmer/EPSPS dsRNA, SEQ ID NO. 87, 88 (chain 1 GGUCGACAACUUGCUGUAUAGUGAT; chain 2 AUCACUAUACAGCAAGUUGUCGACCUC; chain 1: sugars from the 5' end r23 d2, backbone not given here; chain 2: RNA, backbone not given here)
[2]; [4]
  Results: stunted: 51% stunted

B1: Treatment 10: dsRNA corresponding to nucleotides 914-1113 of SEQ ID NO:2 (nucleic acid, listed as Nicotiana benthamiana)
chain: ACAGATTTCTTCAGGAGAAACATGGTTCAAAAATGGCCTTTTTAGATGGTAACCCTCCTGAGAGACTTTGCATGCCGATTGTGGAACATATTGAGTCAAAAGGTGGCCAAGTCAGACTAAACTCACGAATAAAAAAGATCGAGCTGAATGAGGATGGAAGTGTCAAATGTTTTATACTGAATAATGGCAGTACAATTAAA
modifications: double-stranded RNA
[1]; 200-mer dsRNA at 0.6 microM, oligonucleotides 25 microM each
  bleaching of apical leaves (FIG. 12A): Bleaching of apical leaves was observed
[1]
  systemic regulation (suppression) of the target phytoene desaturase gene: also effective

B2: 678 bp Palmer PDS dsRNA: dsRNA to positions 317-994 of Palmer amaranth PDS (SEQ ID NO:37) (nucleic acid, listed as Amaranthus palmeri)
sense: TAGGAGGAAAGGTTGCAGCGTGGAAGGATGAGGATGGTGACTGGTATGAGACTGGGCTACATATATTCTTTGGGGCATATCCAAATGTCCAAAATCTATTTGGAGAACTTGGTATAAATGACCGACTGCAATGGAAGGAGCACTCTATGATTTTTGCAATGCCCAGCAAGCCCGGTGAATTCAGTCGCTTTGATTTTCCCGAAATCCTGCCTGCACCATTAAATGGCATATGGGCAATCCTAAGAAATAATGAAATGCTAACCTGGCCAGAAAAAATCAAGTTTGCCATTGGCTTGTTGCCTGCTATGGCAGGCGGACAGTCATATGTTGAAGCACAAGATGGTTTGAGTGTCCAAGAGTGGATGAGAAAACAAGGAGTACCCGATCGTGTAACTGATGATGTGTTTATTGCCATGTCAAAGGCACTGAACTTCATAAATCCCGATGAACTTTCAATGCAGTGCATCTTGATTGCTCTGAACCGATTCCTGCAGGAGAAACATGGTTCTAAGATGGCCTTCCTAGACGGAAACCCTCCAGAGAGGCTGTGCATGCCTATTGTTAAACACATCGAGTCACTAGGTGGTGAAGTTAAACTTAACTCTCGTATACAAAAGATTCAGTTGGACCAGAGTGGAAGCGTGAAGAGTTTTTTGCTAAATAACGGGAGGGAAATAC
modifications: complementary strand
[3]
  bleaching of leaves: showed bleaching of leaves
  bleaching of leaves (FIG. 17): apical leaf bleaching observed

B3: 198 bp Palmer PDS dsRNA: dsRNA to positions 797-994 of Palmer amaranth PDS (SEQ ID NO:37) (nucleic acid, listed as Amaranthus palmeri)
sense: ACCGATTCCTGCAGGAGAAACATGGTTCTAAGATGGCCTTCCTAGACGGAAACCCTCCAGAGAGGCTGTGCATGCCTATTGTTAAACACATCGAGTCACTAGGTGGTGAAGTTAAACTTAACTCTCGTATACAAAAGATTCAGTTGGACCAGAGTGGAAGCGTGAAGAGTTTTTTGCTAAATAACGGGAGGGAAATAC
modifications: complementary strand
[3]
  bleaching of leaves: showed bleaching of leaves
  bleaching of leaves (FIG. 17): apical leaf bleaching observed

B4: 9 (nucleic acid)
chain 1: GCAAGAGATGTCCTAGGTGGG
chain 2: ACAGATTTCTTCAGGAGAAACATGG
chain 3: CATCTCCTTTAATTGTACTGCC
chain 4: TTTAATTGTACTGCCATTATTC
chain 5: CACTTCCATCCTCATTCAGCTCGAT
chain 6: ACACCTCATCTGTCACCCTATCAG
chain 7: CAGTCTCGTACCAATCTCCATCAT
modifications: DNA, backbone not given here
[1]
  Chlorophyll (day 7): 30.2
  Chlorophyll (day 12): 34.4
  Bleaching (day 5): not yet
